In brackets after ≈: the same amount, converted by molar mass. One block for each molecule: values may come before it.
Assays:
[1] = system: HOS-TE85; assay: Antiproliferative activity against human MNNG/HOS cells assessed as cell growth inhibition measured after 72 hrs by CCK-8 assay; type: functional, cell-based; details: HOS-TE85, 72 h
[2] = system: U2OS; assay: Antiproliferative activity against human U2OS cells assessed as cell growth inhibition at 1 uM measured after 72 hrs by CCK-8 assay relative to control; type: functional
[3] = system: SJSA-1; assay: Antiproliferative activity against human SJSA-1 assessed as cell growth inhibition at 1 uM measured after 72 hrs by CCK-8 assay relative to control; type: functional
[4] = system: HOS-TE85; assay: Antiproliferative activity against human MNNG/HOS cells assessed as cell growth inhibition at 1 uM measured after 72 hrs by CCK-8 assay relative to control; type: functional
[5] = system: MG-63; assay: Antiproliferative activity against human MG-63 cells assessed as cell growth inhibition at 1 uM measured after 72 hrs by CCK-8 assay relative to control; type: functional
[6] = system: 143B; assay: Antiproliferative activity against human 143B cells assessed as cell growth inhibition at 1 uM measured after 72 hrs by CCK-8 assay relative to control; type: functional
[7] = system: HOS; assay: Antiproliferative activity against human HOS cells assessed as cell growth inhibition at 1 uM measured after 72 hrs by CCK-8 assay relative to control; type: functional
[8] = Kinetic solubility of compound at pH 6.8 by turbidimetry method; type: physicochemical; details: buffer, read-out: Kinetic_solubility
[9] = Microsomal stability in mouse liver microsomes assessed as intrinsic clearance at 0.1 uM incubated for 10 mins in presence of NADPH by LC-MS/MS analysis; type: ADME, Microsome
[10] = Microsomal stability in rat liver microsomes assessed as intrinsic clearance at 0.1 uM incubated for 10 mins in presence of NADPH by LC-MS/MS analysis; type: ADME, Microsome
[11] = Microsomal stability in human liver microsomes assessed as intrinsic clearance at 0.1 uM incubated for 10 mins in presence of NADPH by LC-MS/MS analysis; type: ADME, Microsome
[12] = Kinetic solubility of compound at pH 7.4 by turbidimetry method; type: physicochemical; details: buffer, read-out: Kinetic_solubility

Structure (SMILES): COc1ccccc1N1C(=O)CSC1c1cc(C)cc(C(=O)NCCCCc2ccccc2)c1 (centres undefined)
- IC50 [1]: 0.0162 µM

Structure (SMILES): COc1ccccc1N1C(=O)CSC1c1cccc(C(=O)NCCCCN2C(=O)C=CC2=O)c1 (centres undefined)
- IC50 [1]: > 1 µM

Structure (SMILES): COc1ccccc1N1C(=O)CSC1c1cccc(C(=O)NCCCCn2cccn2)c1 (centres undefined)
- IC50 [1]: 0.0917 µM

Structure (SMILES): O=C(NCCCCn1cccn1)c1cccc(C2SCC(=O)N2c2cc(Cl)ccn2)c1 (centres undefined)
- IC50 [1]: 0.0364 µM

Structure (SMILES): O=C(NCCCCc1ccccc1)c1cccc(C2OCC(=O)N2c2cccc(F)c2)c1 (centres undefined)
- inhibition at 1 µM [2]: 25%
- inhibition at 1 µM [3]: 32%
- IC50 [1]: 0.32 µM
- inhibition at 1 µM [4]: 87%
- inhibition at 1 µM [5]: 66%
- inhibition at 1 µM [6]: 0%
- inhibition at 1 µM [7]: 29%

Structure (SMILES): COc1cc(F)ccc1N1C(=O)CSC1c1cccc(C(=O)NCCCCc2ccccc2)c1 (centres undefined)
- inhibition at 1 µM [2]: 34%
- inhibition at 1 µM [3]: 77%
- IC50 [1]: 0.0711 µM
- inhibition at 1 µM [4]: 94%
- inhibition at 1 µM [5]: 92%
- inhibition at 1 µM [6]: 63%
- inhibition at 1 µM [7]: 81%

Structure (SMILES): O=C(NCCCCc1ccccc1)c1cc(F)cc(C2SCC(=O)N2c2ccccn2)c1 (centres undefined)
- IC50 [1]: 0.0142 µM

Structure (SMILES): COc1ccc(OC)c(N2C(=O)CSC2c2cccc(C(=O)NCCCCc3ccccc3)c2)c1 (centres undefined)
- inhibition at 1 µM [2]: 1%
- inhibition at 1 µM [3]: 48%
- IC50 [1]: > 1 µM
- inhibition at 1 µM [4]: 20%
- inhibition at 1 µM [5]: 92%
- inhibition at 1 µM [6]: 2%
- inhibition at 1 µM [7]: 5%

Structure (SMILES): CCOc1ccccc1N1C(=O)C(C)SC1c1cccc(C(=O)NCCCCc2ccccc2)c1 (centres undefined)
- inhibition at 1 µM [2]: 37%
- inhibition at 1 µM [3]: 85%
- IC50 [1]: 0.0716 µM
- inhibition at 1 µM [4]: 94%
- inhibition at 1 µM [5]: 92%
- inhibition at 1 µM [6]: 53%
- inhibition at 1 µM [7]: 82%

- solubility kinetic [8]: 20 µM (≈ 8.63 µg/mL)
- intrinsic clearance (CLint) [9]: 644 mL/min/g
- intrinsic clearance (CLint) [10]: 1482 mL/min/g
- intrinsic clearance (CLint) [11]: 412 mL/min/g
- solubility kinetic [12]: 20 µM (≈ 8.63 µg/mL)
Structure (SMILES): O=C(NCCCCc1ccccc1)c1cccc(C2SCC(=O)N2c2ccccn2)c1 (centres undefined)
- IC50 [1]: 0.0197 µM

- solubility kinetic [8]: 10 µM (≈ 4.71 µg/mL)
- intrinsic clearance (CLint) [9]: 2943 mL/min/g
- intrinsic clearance (CLint) [10]: 3543 mL/min/g
- intrinsic clearance (CLint) [11]: 2069 mL/min/g
- solubility kinetic [12]: 10 µM (≈ 4.71 µg/mL)
Structure (SMILES): O=C(NCCCCc1ccccc1)c1cccc(C2SCC(=O)N2c2cccc(C3CC3)c2)c1 (centres undefined)
- IC50 [1]: 0.299 µM

Structure (SMILES): COc1ccccc1N1C(=O)CSC1c1cccc(C(=O)NCCCCn2cncn2)c1 (centres undefined)
- IC50 [1]: > 1 µM

Structure (SMILES): CC1SC(c2cccc(C(=O)NCCCCc3ccccc3)c2)N(c2cccc(C3CC3)c2)C1=O (centres undefined)
- IC50 [1]: 0.295 µM

Structure (SMILES): COc1ccccc1N1C(=O)CSC1c1cccc(C(=O)NCCCCn2ccc3ccccc32)c1 (centres undefined)
- IC50 [1]: 0.286 µM

Structure (SMILES): Cc1ccnc(N2C(=O)CS[C@H]2c2cccc(C(=O)NCCCCn3cccn3)c2)c1
- IC50 [1]: > 10 µM

Structure (SMILES): CC1SC(c2cccc(C(=O)NCCCCc3ccc(Cl)cc3)c2)N(c2ccc(C3CC3)cc2)C1=O (centres undefined)
- IC50 [1]: > 1 µM

Structure (SMILES): CC1SC(c2cccc(C(=O)NCCCCc3ccc(Cl)cc3)c2)N(c2cccc(C3CC3)c2)C1=O (centres undefined)
- IC50 [1]: 0.932 µM

Structure (SMILES): O=C(NCCCCc1ccccc1)c1cccc(C2SCC(=O)N2c2ccc(-c3ccccc3)cc2)c1 (centres undefined)
- IC50 [1]: > 1 µM

Structure (SMILES): O=C(NCCCCn1cccn1)c1cccc(C2SCC(=O)N2c2cccnc2)c1 (centres undefined)
- IC50 [1]: > 1 µM

Structure (SMILES): O=C(NCCc1ccccc1)c1cccc(C2SCC(=O)N2c2ccc(C3CC3)cc2)c1 (centres undefined)
- IC50 [1]: > 1 µM

- solubility kinetic [8]: 20 µM (≈ 9.95 µg/mL)
- intrinsic clearance (CLint) [9]: 951 mL/min/g
- intrinsic clearance (CLint) [10]: 742 mL/min/g
- intrinsic clearance (CLint) [11]: 261 mL/min/g
- solubility kinetic [12]: 20 µM (≈ 9.95 µg/mL)
Structure (SMILES): O=C(NCCCCc1ccccc1)c1cccc(C2SCC(=O)N2c2cccc(-c3c[nH]nn3)c2)c1 (centres undefined)
- IC50 [1]: 0.11 µM

- solubility kinetic [8]: 50 µM (≈ 21.1 µg/mL)
- intrinsic clearance (CLint) [9]: 304 mL/min/g
- intrinsic clearance (CLint) [10]: 506 mL/min/g
- intrinsic clearance (CLint) [11]: 82.1 mL/min/g
- solubility kinetic [12]: 50 µM (≈ 21.1 µg/mL)
Structure (SMILES): O=C(NCCCCn1cccn1)c1cccc(C2SCC(=O)N2c2ccccn2)c1 (centres undefined)
- IC50 [1]: 0.0603 µM

Structure (SMILES): O=C(NCCCc1ccccc1)c1cccc(C2SCC(=O)N2c2ccc(C3CC3)cc2)c1 (centres undefined)
- IC50 [1]: > 1 µM

Structure (SMILES): COc1ccccc1N1C(=O)CSC1c1cccc(C(=O)NCCCCc2cccs2)c1 (centres undefined)
- IC50 [1]: 0.046 µM

Structure (SMILES): O=C(NCCCCc1ccccc1)c1cccc(C2SCC(=O)N2c2cnccn2)c1 (centres undefined)
- IC50 [1]: > 1 µM
